From the METLIN SMRT retention time set (Domingo-Almenara et al. 2019)

Assay: gradient 5% acetonitrile 3 min, to 50% in 2 min, to 85% in 15 min, held 3 min, 100 µL/min
Conditions: column: Zorbax Extend-C18 2.1 x 50 mm; eluents: water / acetonitrile, 0.1% formic acid
In short: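 Retention times come from adduct peaks that were picked computationally and then checked by hand. The standards, pure and pooled in mixtures of ~100 molecules, were run on a Zorbax Extend-C18 column (2.1 × 50 mm, 1.8 μm) at 100 μL/min with water and acetonitrile, each with 0.1% formic acid. Detection was by quadrupole time-of-flight mass spectrometry in positive and negative ionization mode, with a dead volume of 40 μL and a dwell volume of 900 μL.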

Question: For `CCC(=O)N1CCc2c(sc3ncnc(NCc4ccccc4)c23)C1`, which RP-LC retention time is on record?
Answer: The RP-LC retention time was 790 s.

Question: For `Cc1nc(C)c(C(=O)N2CCC(Oc3ccc(-c4noc(-c5ccccc5)n4)cc3)C2)s1` (centres undefined), which RP-LC retention time is on record?
Answer: The RP-LC retention time was 1080 s.

Question: For `Fc1cccc(Cn2cc(-c3noc(-c4ccc5c(c4)OCO5)n3)nn2)c1`, which RP-LC retention time is on record?
Answer: Its RP-LC retention time is 962 s.

Question: With `Cn1c(=O)c2cc(C(=O)Nc3ccc4c(c3)OCO4)cnc2n(-c2ccc(F)cc2)c1=O` as the compound, how does the RP-LC retention time read?
Answer: Its RP-LC retention time is 850 s.

Question: With `N#Cc1ccc(C(=O)N2CCCC2c2nc(-c3ccccc3)n[nH]2)cc1` (centres undefined) as the compound, how does the RP-LC retention time read?
Answer: The RP-LC retention time was 696 s.

Question: With `COc1ccc(C2(C(=O)Nc3cc(-c4ccco4)no3)CC2)cc1` as the compound, how does the RP-LC retention time read?
Answer: The RP-LC retention time was 1000 s.

Question: For `Cc1ccccc1CNC(=O)c1cn(C)nc1S(=O)(=O)N1CCSCC1`, which RP-LC retention time is on record?
Answer: The RP-LC retention time was 887 s.

Question: With `Cc1ccc2c(Nc3ccc(C)c(C)c3)c(C(=O)N3CCSCC3)cnc2n1` as the compound, how does the RP-LC retention time read?
Answer: The RP-LC retention time was 644 s.

Question: Which RP-LC retention time does the source give for `Cc1ccc(-c2nc3nc(C)cc(C)n3c2Nc2ccc(Cl)cc2)cc1` here?
Answer: Its RP-LC retention time is 786 s.

Question: With `Cc1ccc(N2C(=O)CN(Cc3ccco3)[C@H]3CS(=O)(=O)C[C@H]32)cc1` as the compound, how does the RP-LC retention time read?
Answer: The RP-LC retention time was 737 s.

Question: Which RP-LC retention time does the source give for `O=C(NCc1ccccc1F)C1CCCN(c2nnc3ccc(Cl)cn23)C1` (centres undefined) here?
Answer: The RP-LC retention time was 756 s.

Question: Which RP-LC retention time does the source give for `COC(=O)c1ccccc1NC(=O)C1CN(C(=O)c2ccc(F)c(F)c2)C1` here?
Answer: Its RP-LC retention time is 803 s.

Question: For `Cc1ccc(C2Cn3nnc(-c4nc(-c5ccc6c(c5)OCO6)no4)c3CO2)c(C)c1` (centres undefined), which RP-LC retention time is on record?
Answer: Its RP-LC retention time is 1250 s.

Question: With `CCC(CC)NC(=O)[C@@H]1[C@H](c2cc(OC)c(OC)c(OC)c2)c2cc3c(cc2[C@H](O)[C@H]1CO)OCO3` as the compound, how does the RP-LC retention time read?
Answer: The RP-LC retention time was 692 s.

Question: For `CCCN1CCn2cc(S(=O)(=O)Nc3ccccc3OC)cc2C1=O`, which RP-LC retention time is on record?
Answer: The RP-LC retention time was 733 s.

Question: With `COc1ccc(-c2cn3c(CC(=O)NC4CCCCC4)csc3n2)cc1OC` as the compound, how does the RP-LC retention time read?
Answer: The RP-LC retention time was 702 s.

Question: With `Cc1cc(C)cc(NS(=O)(=O)c2cc(-c3[nH]ncc3C(=O)N3CCCCC3)oc2C)c1` as the compound, how does the RP-LC retention time read?
Answer: The RP-LC retention time was 807 s.

Question: With `O=C(NCc1ccc(F)cc1)N1CCC(Nc2cccnc2)C1` (centres undefined) as the compound, how does the RP-LC retention time read?
Answer: Its RP-LC retention time is 591 s.

Question: With `CCc1noc(NC(C)=O)c1-c1ccc(C)c(S(=O)(=O)Nc2ccccc2C)c1` as the compound, how does the RP-LC retention time read?
Answer: The RP-LC retention time was 836 s.

Question: For `COc1ccc(C(=O)Nc2ccc3c(c2)Sc2ncccc2C(=O)N3C(C)C)cc1`, which RP-LC retention time is on record?
Answer: Its RP-LC retention time is 860 s.

Question: Which RP-LC retention time does the source give for `O=C(NCC1CCCCC1)c1ccc(NC(=O)C2CCC2)cc1N1CCOCC1` here?
Answer: The RP-LC retention time was 930 s.

Question: With `COc1ccc(OC)c(NC(=O)N(C)CCc2noc(-c3ccc(Cl)cc3)n2)c1` as the compound, how does the RP-LC retention time read?
Answer: The RP-LC retention time was 972 s.

Question: Which RP-LC retention time does the source give for `O=C(NCc1nc2ccccc2[nH]1)c1coc(NC(=O)c2cccs2)n1` here?
Answer: The RP-LC retention time was 556 s.

Question: For `CC(C)(C)NC(=O)N1CCCCC1c1nncn1-c1ccccc1` (centres undefined), which RP-LC retention time is on record?
Answer: The RP-LC retention time was 712 s.

Question: Which RP-LC retention time does the source give for `Cc1[nH]nc(-c2c(C)sc(C)c2S(=O)(=O)Nc2ccc(Cl)cc2)c1C` here?
Answer: The RP-LC retention time was 1060 s.

Question: For `COC(=O)c1ccc(Oc2cc(C)nc(-n3nc(C)cc3C)n2)cc1`, which RP-LC retention time is on record?
Answer: The RP-LC retention time was 912 s.

Question: For `CN(Cc1ccccc1)C(=O)c1ccc(-c2cccs2)nc1`, which RP-LC retention time is on record?
Answer: Its RP-LC retention time is 920 s.

Question: Which RP-LC retention time does the source give for `COCCN1C(=O)CCc2cc(NS(=O)(=O)c3ccc(Cl)cc3)ccc21` here?
Answer: Its RP-LC retention time is 771 s.

Question: Which RP-LC retention time does the source give for `COc1ccc(C(C)NC(=O)Cn2c(=O)nc(-c3ccccc3)c3ccccc32)cc1OC` (centres undefined) here?
Answer: Its RP-LC retention time is 697 s.

Question: With `Cc1[nH]c(C)c(S(=O)(=O)N2CCC(C(=O)N3CCc4ccccc43)CC2)c1C(=O)N1CCCC1` as the compound, how does the RP-LC retention time read?
Answer: Its RP-LC retention time is 716 s.

Question: Which RP-LC retention time does the source give for `CCn1cc(C2=CCN(C(=O)Nc3ccc(OC)cc3)CC2)c2cccnc21` here?
Answer: Its RP-LC retention time is 811 s.

Question: Which RP-LC retention time does the source give for `CC1CCCN(CCCNC(=O)c2nc3nc(-c4ccco4)cc(C(F)(F)F)n3n2)C1` (centres undefined) here?
Answer: The RP-LC retention time was 641 s.

Question: With `CC(C)n1cnc2cc(CNC(=O)c3ccc(C#N)cc3)ccc21` as the compound, how does the RP-LC retention time read?
Answer: The RP-LC retention time was 619 s.

Question: With `O=C(Nc1ccccc1F)N1[C@H]2CC[C@@H]1c1cncnc1C2` as the compound, how does the RP-LC retention time read?
Answer: The RP-LC retention time was 646 s.

Question: For `O=C(NC1(c2nc(-c3ccccc3)no2)CCCCC1)c1ccc2c(c1)OCO2`, which RP-LC retention time is on record?
Answer: The RP-LC retention time was 1120 s.

Question: Which RP-LC retention time does the source give for `CCCS(=O)(=O)c1nc2ccc(NS(=O)(=O)c3cccc(F)c3)cc2s1` here?
Answer: Its RP-LC retention time is 918 s.

Question: Which RP-LC retention time does the source give for `COCCN(CC(=O)N1CCc2sccc2C1COc1cccc(F)c1)C(=O)C1CCCC1` (centres undefined) here?
Answer: The RP-LC retention time was 999 s.

Question: With `CC(C)Cc1ccc(S(=O)(=O)NC2CCCN(c3ccc(=O)n(CC4CC4)n3)C2)cc1` (centres undefined) as the compound, how does the RP-LC retention time read?
Answer: Its RP-LC retention time is 1050 s.

Question: With `Cc1ccccc1Cn1ccnc1C(N)=O` as the compound, how does the RP-LC retention time read?
Answer: Its RP-LC retention time is 695 s.

Question: For `CC1CCN(S(=O)(=O)c2ccc(-c3nnc(C(=O)NCC4CCCO4)o3)cc2)CC1` (centres undefined), which RP-LC retention time is on record?
Answer: Its RP-LC retention time is 865 s.

Question: Which RP-LC retention time does the source give for `Nc1nc(N2CCC3(CC2)OCCO3)ncc1C(=O)NCc1ccccc1F` here?
Answer: Its RP-LC retention time is 651 s.

Question: Which RP-LC retention time does the source give for `CCn1c(=O)c(C(=O)N2CCCC2)nc2ccccc21` here?
Answer: Its RP-LC retention time is 665 s.

Question: For `COc1cccc(-c2cc3c(=O)n(Cc4nc(-c5ccc(F)c(Br)c5)no4)ccn3n2)c1`, which RP-LC retention time is on record?
Answer: Its RP-LC retention time is 1090 s.

Question: With `CCCNC(=O)C1CCN(c2ccc(SCC(=O)Nc3cccc(F)c3)nn2)CC1` as the compound, how does the RP-LC retention time read?
Answer: The RP-LC retention time was 645 s.
